{"source": "patent US20240057596A1", "about": "(priority 2021, published 2024)", "key": {"Rhizoctonia solani": {"tested_on": "Rhizoctonia solani", "experiment": "field trial sheath blight on rice in Thailand, percentage disease", "assay_type": "in vivo", "details": "750 g/ha, 2 sprays at 7 day interval; for percentage of disease (%): location L1; for percentage of sheath blight disease (%): location L2", "method": "A field trial was established to test the efficacy of different compositions for control of sheath blight (Rhizoctonia solani) on rice in Thailand at two locations: L1: Bang Kham, Sriprachan, Suphanburi; and L2: Don Pru, Sriprachan, Suphanburi. Disease inoculation was performed 14 days before 1st spray.\n(§1) At location L1, experimental design was randomize complete block (RCB); number of different treatments: six as provided in Table 11; number of replications: 4; plot size: 6×5 m/plot; rice variety: PTT1; and spray volume: 312.5 L/ha. One treatment had 4 replications, with one replication having 10 samplings.\nData assessments included percentage of length (cm) of the symptom infected and length of the plant (cm) before 1st spray; before 2nd spray; 7 days after 2nd spray; at 2 weeks after 2nd spray; at 3 weeks after 2nd spray; and at 2 weeks before harvest.\nThe percentage disease was calculated as follows:\nDisease (%)=[length of infection symptom (cm)/length of plant (cm)]×100\nas §1, with “L2,” for “L1,”\nData assessments included percentage of length (cm) of the symptom infected and length of the plant (cm) before 1st spray; before 2nd spray; 7 days after 2nd spray; 2 weeks after 2nd spray; at 3 weeks after 2nd spray; and at 2 weeks before harvest."}, "rice plants": {"tested_on": "rice plants", "assay_type": "in vivo, rice variety: PTT1", "details": "750 g/ha; for Yield (kg/plot): plot 9 m2, 120 DAS"}}, "note": "Like-named read-outs stand apart in the source and are kept apart here."}
{"smiles": "Cc1cccc2sc3nncn3c12", "note": "[Tricyclazole]", "values": [{"measurement": "percentage of disease (%)", "setting": "Rhizoctonia solani; 2 WBH (106 DAS)", "value": 35.63, "unit": "b %"}, {"measurement": "percentage of disease (%)", "setting": "Rhizoctonia solani; 7 DAA#2 (89 DAS)", "value": 35.66, "unit": "bc %"}, {"measurement": "percentage of disease (%)", "setting": "Rhizoctonia solani; 14 DAA#2 (96 DAS)", "value": 37.90, "unit": "c %"}, {"measurement": "percentage of disease (%)", "setting": "Rhizoctonia solani; 21 DAA#2 (103 DAS)", "value": 35.89, "unit": "c %"}, {"measurement": "percentage of disease (%)", "setting": "Rhizoctonia solani; BA#1 (before 1st spray, 75 DAS)", "value": 22.57, "unit": "a %"}, {"measurement": "percentage of disease (%)", "setting": "Rhizoctonia solani; BA#2 (before 2nd spray, 82 DAS)", "value": 40.05, "unit": "bc %"}, {"measurement": "percentage of sheath blight disease (%)", "setting": "Rhizoctonia solani; 2 WBH (106 DAS)", "value": 39.11, "unit": "b %"}, {"measurement": "percentage of sheath blight disease (%)", "setting": "Rhizoctonia solani; 7 DAA#2 (84 DAS)", "value": 37.90, "unit": "bc %"}, {"measurement": "percentage of sheath blight disease (%)", "setting": "Rhizoctonia solani; 14 DAA#2 (91 DAS)", "value": 38.71, "unit": "d %"}, {"measurement": "percentage of sheath blight disease (%)", "setting": "Rhizoctonia solani; 21 DAA#2 (98 DAS)", "value": 39.75, "unit": "d %"}, {"measurement": "percentage of sheath blight disease (%)", "setting": "Rhizoctonia solani; BA#1 (before 1st spray, 70 DAS)", "value": 26.10, "unit": "a %"}, {"measurement": "percentage of sheath blight disease (%)", "setting": "Rhizoctonia solani; BA#2 (before 2nd spray, 77 DAS)", "value": 32.67, "unit": "b %"}, {"measurement": "Yield (kg/ha)", "setting": "rice plants; location L1", "value": 5861.11, "unit": "kg/ha"}, {"measurement": "Yield (kg/rai)", "setting": "rice plants; location L1", "value": 937.78, "unit": "kg/rai"}, {"measurement": "Yield (kg/plot)", "setting": "rice plants; location L1", "value": 5.28, "unit": "kg/plot"}, {"measurement": "Yield (kg/ha)", "setting": "rice plants; location L2", "value": 6638.89, "unit": "ab kg/ha"}, {"measurement": "Yield (kg/rai)", "setting": "rice plants; location L2", "value": 1062.22, "unit": "kg/rai"}, {"measurement": "Yield (kg/plot)", "setting": "rice plants; location L2", "value": 5.98, "unit": "kg/plot"}]}
